Test results reported in patent publication US8697694B2, “Substituted pyridine and pyrimidine derivatives and their use in treating viral infections” (priority 2008, dated 2014).

What follows are compounds tested on HCV replicon cells (assay: Cell-based HCV replicon assay (replicon RNA level by real time PCR, Taqman)). Details: Hepatitis C virus, 72 h, HCV replicon cells, replicon RNA level by real time PCR, harvested day 3; read-out: EC90 (μM) range.
In short: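 Readout: ΔCT between NS5B replicon RNA and GAPDH by real-time RT-PCR in lysates harvested on day 3, fitted sigmoidally; EC50 at ΔCT=1, EC90 at ΔCT=3.2. Compounds tested at ten 2-fold dilutions from 25 μM to 1 μM start, 10% FBS, 0.5% DMSO.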
Work on `Cc1nc(NCC(F)(F)F)nc(N[C@@H]2C[C@H](CO)N(C(=O)OC(C)(C)C)C2)c1-c1nc2ccccc2s1` [Example 1348] yielded an EC90 of over 5 µM.
`Cc1nc(NCC(F)(F)F)nc(N[C@H]2CN[C@@H](CO)C2)c1-c1nc2ccccc2s1` [Example 1349] was tested, and the EC90 was over 5 µM.
For `CO[C@@H]1[C@H](O)[C@@H](CO)C[C@H]1Nc1nc(N[C@H](C)c2ccc(C)cc2)nc(C)c1-c1nc2cnccc2s1` [Example 1350], the EC90 was under 0.5 µM.
`Cc1nc(N[C@H](C)C(F)(F)F)nc(N[C@@H]2C[C@H](CO)[C@@H](O)[C@H]2O)c1-c1nc2c(C)nccc2s1` [Example 1351] was tested, and the EC90 was under 0.5 µM.
For `CCO[C@@H]1[C@H](O)[C@@H](CO)C[C@H]1Nc1nc(NCC(F)(F)F)nc(C)c1-c1nc2ccccc2s1` [Example 1352], the EC90 was under 0.5 µM.
In the case of `Cc1nc(N[C@@H](c2ccccc2)C(F)(F)F)nc(N[C@@H]2C[C@H](CO)[C@@H](O)[C@H]2O)c1-c1nc2c(C)nccc2s1` [Example 1353], the EC90 is reported as under 0.5 µM.
Work on `CO[C@@H]1[C@H](O)[C@@H](CO)C[C@H]1Nc1nc(NCC(F)(F)F)nc(C)c1-c1nc2ccccc2o1` [Example 1354] yielded an EC90 of under 0.5 µM.
`Cc1nc(N[C@H](C)c2ccc(-n3cccn3)cc2)nc(N[C@@H]2C[C@H](CO)[C@@H](O)[C@H]2O)c1-c1nc2c(C)nccc2s1` [Example 1355] gave an EC90 of under 0.5 µM.
In the case of `Cc1nc(N[C@H](C)c2ccc(C(F)(F)F)cc2)nc(N[C@@H]2C[C@H](CO)[C@@H](O)[C@H]2O)c1-c1nc2c(C)nccc2s1` [Example 1356], the EC90 is reported as under 0.5 µM.
Compound `Cc1nc(NCC(F)(F)F)nc(N[C@@H]2C[C@H](CS(C)(=O)=O)[C@@H](O)[C@H]2O)c1-c1nc2ccccc2s1` [Example 1357] has an EC90 of under 0.5 µM.
For `Cc1ccc([C@@H](C)Nc2nc(C)c(-c3nc4c(C)nccc4s3)c(N[C@@H]3C[C@H](CO)[C@@H](O)[C@H]3O)n2)cc1F` [Example 1358], the EC90 was under 0.5 µM.
For `Cc1nc(NCC(C)(C)C)nc(N[C@@H]2C[C@H](CO)[C@@H](O)[C@H]2O)c1-c1nc2ccccc2o1` [Example 1359], the EC90 was under 0.5 µM.
`Cc1ccc([C@@H](C)Nc2nc(C)c(-c3nc4ccccc4o3)c(N[C@@H]3C[C@H](CO)[C@@H](O)[C@H]3O)n2)cc1` [Example 1360] was tested, and the EC90 was 0.5 to 5 µM.
Compound `Cc1nc(N[C@@H](c2ccsc2)C(F)(F)F)nc(N[C@@H]2C[C@H](CO)[C@@H](O)[C@H]2O)c1-c1nc2c(C)nccc2s1` [Example 1361] has an EC90 of under 0.5 µM.
With `Cc1ccc([C@H](Nc2nc(C)c(-c3nc4c(C)nccc4s3)c(N[C@@H]3C[C@H](CO)[C@@H](O)[C@H]3O)n2)C2CC2)cc1` [Example 1362] the EC90 was under 0.5 µM.
Work on `CC[C@@H](Nc1nc(C)c(-c2nc3c(C)nccc3s2)c(N[C@@H]2C[C@H](CO)[C@@H](O)[C@H]2O)n1)c1ccc(C)cc1` [Example 1363] yielded an EC90 of under 0.5 µM.
With `COC[C@@H](Nc1nc(C)c(-c2nc3c(C)nccc3s2)c(N[C@@H]2C[C@H](CO)[C@@H](O)[C@H]2O)n1)c1ccccc1` [Example 1364] the EC90 was 0.5 to 5 µM.
With `Cc1nc(N[C@H](C)c2ccc(-n3cccn3)cc2)nc(N[C@@H]2C[C@H](CO)[C@@H](O)[C@H]2O)c1-c1nc2ccccc2s1` [Example 1365] the EC90 was under 0.5 µM.
`Cc1nc(NCC(F)(F)F)nc(N[C@@H]2C[C@H](O)[C@@H](O)[C@H]2O)c1-c1nc2ccccc2s1` [Example 1366] gave an EC90 of 0.5 to 5 µM.
In the case of `Cc1nc(NCC(F)(F)F)nc(N[C@@H]2C[C@H](CS(C)(=O)=O)[C@@H](O)[C@H]2O)c1-c1nc2cnccc2s1` [Example 1367], the EC90 is reported as under 0.5 µM.
In the case of `Cc1ccc([C@@H](C)Nc2nc(C)c(-c3nc4cnccc4s3)c(N[C@@H]3C[C@H](CS(C)(=O)=O)[C@@H](O)[C@H]3O)n2)cc1` [Example 1368], the EC90 is reported as under 0.5 µM.
Work on `CCCc1nccc2sc(-c3c(C)nc(NCC4CC4)nc3N[C@@H]3C[C@H](CO)[C@@H](O)[C@H]3O)nc12` [Example 1369] yielded an EC90 of under 0.5 µM.
Compound `Cc1nc(NCC2CC2)nc(N[C@@H]2C[C@H](CO)[C@@H](O)[C@H]2O)c1-c1nc2c(CC(C)C)nccc2s1` [Example 1370] has an EC90 of under 0.5 µM.
For `CCCc1nccc2sc(-c3c(C)nc(N[C@H](C)c4ccc(C)cc4)nc3N[C@@H]3C[C@H](CO)[C@@H](O)[C@H]3O)nc12` [Example 1371], the EC90 was under 0.5 µM.
Compound `Cc1ccc([C@@H](C)Nc2nc(C)c(-c3nc4c(CC(C)C)nccc4s3)c(N[C@@H]3C[C@H](CO)[C@@H](O)[C@H]3O)n2)cc1` [Example 1372] has an EC90 of under 0.5 µM.
For `Cc1nc(N[C@H](C)C2CC2)nc(N[C@@H]2C[C@H](CO)[C@@H](O)[C@H]2O)c1-c1nc2c(CC(C)C)nccc2s1` [Example 1373], the EC90 was under 0.5 µM.
With `CCOc1cc2sc(-c3c(C)nc(NCC4CC4)nc3N[C@@H]3C[C@H](CO)[C@@H](O)[C@H]3O)nc2c(C)n1` [Example 1374] the EC90 was 0.5 to 5 µM.
Compound `CCOc1cc2sc(-c3c(C)nc(N[C@H](C)c4ccc(C)cc4)nc3N[C@@H]3C[C@H](CO)[C@@H](O)[C@H]3O)nc2c(C)n1` [Example 1375] has an EC90 of under 0.5 µM.
`CCOCCNc1nc(C)c(-c2nc3c(C)nc(OCC)cc3s2)c(N[C@@H]2C[C@H](CO)[C@@H](O)[C@H]2O)n1` [Example 1376] gave an EC90 of under 0.5 µM.
Compound `CCNC(=O)NC[C@H]1C[C@@H](Nc2nc(NCC(F)(F)F)nc(C)c2-c2nc3ccccc3s2)[C@H](O)[C@@H]1O` [Example 1377] has an EC90 of 0.5 to 5 µM.
For `Cc1nc(N(C)CC(F)(F)F)nc(N[C@@H]2C[C@H](CN(C)S(C)(=O)=O)[C@@H](O)[C@H]2O)c1-c1nc2ccccc2s1` [Example 1378], the EC90 was over 5 µM.
With `Cc1nc(NCC(F)(F)F)nc(N[C@@H]2C[C@H](CN(C)S(C)(=O)=O)[C@@H](O)[C@H]2O)c1-c1nc2ccccc2s1` [Example 1379] the EC90 was under 0.5 µM.
`CCCc1nccc2sc(-c3c(C)nc(N[C@H](C)C(F)(F)F)nc3N[C@@H]3C[C@H](CO)[C@@H](O)[C@H]3O)nc12` [Example 1380] gave an EC90 of under 0.5 µM.
Work on `CCCc1nccc2sc(-c3c(C)nc(N[C@H](C)C4CC4)nc3N[C@@H]3C[C@H](CS(C)(=O)=O)[C@@H](O)[C@H]3O)nc12` [Example 1381] yielded an EC90 of under 0.5 µM.
`CCc1nccc2sc(-c3c(C)nc(N[C@H](C)C4CC4)nc3N[C@@H]3C[C@H](CS(C)(=O)=O)[C@@H](O)[C@H]3O)nc12` [Example 1382] showed an EC90 of under 0.5 µM.
For `Cc1nc(NCC2CC2)nc(N[C@@H]2C[C@H](CO)[C@@H](O)C2(C)O)c1-c1nc2cnccc2s1` (stereo partly shown) [Example 1383], the EC90 was under 0.5 µM.
With `Cc1nc(N[C@H](C)C2CC2)nc(N[C@@H]2C[C@H](CO)[C@@H](O)C2(C)O)c1-c1nc2cnccc2s1` (stereo partly shown) [Example 1384] the EC90 was under 0.5 µM.
Work on `CCC1(O)[C@H](O)[C@@H](CO)C[C@H]1Nc1nc(NCC2CC2)nc(C)c1-c1nc2cnccc2s1` (stereo partly shown) [Example 1385] yielded an EC90 of under 0.5 µM.
Work on `CCCc1nccc2sc(-c3c(C)nc(N[C@H](C)C4CC4)nc3N[C@@H]3C[C@H](Cn4ccnn4)[C@@H](O)[C@H]3O)nc12` [Example 1386] yielded an EC90 of under 0.5 µM.
`CCCc1nccc2sc(-c3c(C)nc(N[C@H](C)C4CC4)nc3N[C@@H]3C[C@H](CNS(C)(=O)=O)[C@@H](O)[C@H]3O)nc12` [Example 1387] was tested, and the EC90 was under 0.5 µM.
Compound `CCCc1nccc2sc(-c3c(C)nc(N[C@H](C)C4CC4)nc3N[C@@H]3C[C@H](CNC(=O)OC)[C@@H](O)[C@H]3O)nc12` [Example 1388] has an EC90 of under 0.5 µM.
For `CCCc1nccc2sc(-c3c(C)nc(N[C@H](C)C4CC4)nc3N[C@@H]3C[C@H](CN(C)S(C)(=O)=O)[C@@H](O)[C@H]3O)nc12` [Example 1389], the EC90 was under 0.5 µM.
With `COC(=O)N(C)C[C@H]1C[C@@H](Nc2nc(NCC(F)(F)F)nc(C)c2-c2nc3ccccc3s2)[C@H](O)[C@@H]1O` [Example 1390] the EC90 was 0.5 to 5 µM.
